# In patent US9624211B2, “Anti-cancer compounds” (Board of Regents, The University of Texas System, priority 2013, dated 2017):
# Where two headings read alike, the source gives them in different places.
# Assays:
# A549 xenograft tumors = assay: A549 tumor xenograft in nude mice; assay type: in vivo; details: IP injection
# Method: Nude mice bearing PC3 or A549 xenograft tumors (around 100 mm^3) were administrated with vehicle or 80 mg/kg compound #25 on a daily basis. Tumor size was measured weekly with a caliper, and tumor volume was determined with the standard formula: L×W2×0.52, where L is the longest diameter and W the shortest diameter.
# [1] = target: T1, Skp1/Skp2 binding interaction (Homo sapiens, UniProt Q13309); assay: In vitro Skp2-Skp1 binding assay (GST pull-down)
# T1 construct: made in house; host or cells: GST-Skp1: E. coli BL21; Skp2: in vitro translation
# Method: For in vitro GST-Skp1 and Skp2 interaction, GST-Skp1 proteins purified from the bacterial lysates of BL21 competent cells transformed with pGEX-4X1-Skp1 using the Glutathione-Agarose beads according to the manufacturer's standard procedures. The GST-Skp1 proteins bound to glutathione Sepharose beads (Amersham Biosciences) were then incubated with the in vitro translated [35^S]-Skp2 for 2 hours at 4° C. in the interaction buffer with or without compound #25 (20 mM HEPES, PH 7.9, 150 mM KCl. 5 mM EDTA, 0.5 mM DTT, 0.1% (v/v) Nonidet p-40, 0.1% (w/v) BSA, 1 mM PMSF, and 10% Glycerol), washed by the NETN buffer (20 mM Tris, pH 8.0, 100 mM NaCl, 6 mM MgCl2, 1 mM EDTA, 0.5% Nonidet P-40, 1 mM DTT, 8% glycerol, 1 mM PMSF) 4 times, and subjected to 8% SDS-PAGE, followed by autoradiography.
# Below are the original lead compound and 11 similar compounds that were tested for their ability to block the Skp1/Skp2 binding interaction in an in vitro assay. The quantification was made on western blot/images, and the percentages represent the amount of intact Skp1/Skp2 remaining after treatment. In vitro binding assays were performed. For in vitro GST-Skp1 and Skp2 interaction, GST-Skp1 proteins purified from the bacterial lysates of BL21 competent cells transformed with pGEX-4X1-Skp1 using the Glutathione-Agarose beads were performed according to the manufacturer's standard procedures. The GST-Skp1 proteins bound to glutathione Sepharose beads (Amersham Biosciences) were then incubated with the in vitro translated [35^S]-Skp2 for 2 hours at 4° C. in the interaction buffer with or without lead compound and 11 similar compounds (20 mM HEPES, PH 7.9, 150 mM KCl. 5 mM EDTA, 0.5 mM DTT, 0.1% (v/v) Nonidet p-40, 0.1% (w/v) BSA, 1 mM PMSF, and 10% Glycerol), washed by the NETN buffer (20 mM Tris, pH 8.0, 100 mM NaCl, 6 mM MgCl2, 1 mM EDTA, 0.5% Nonidet P-40, 1 mM DTT, 8% glycerol, 1 mM PMSF) 4 times, and subjected to 8% SDS-PAGE, followed by autoradiography. The data presented in Table 1 below was obtained using the Skp1/Skp2 binding affinity assay. The quantification percentage results listed below are based on the western blot results.
# Skp2 SCF complex = target: T2, Skp2 SCF complex (Homo sapiens, UniProt Q13309); assay: In vitro Skp2-mediated Akt ubiquitination assay; assay type: biochemical; details: recombinant Akt, FIG. 1H
# T2 construct: made in house; host or cells: 293T cells; anti-Flag immunoprecipitation, eluted with Flag peptide
# Method: In vivo and in vitro ubiquitination assays were performed as described with modification (Lin et al., 2009; Yang et al., 2009). For in vitro ubiquitination assay, recombinant GST-Akt proteins were expressed, purified and eluted from the bacterial lysates of BL21 competent cells. Flag-Skp2 SCF complex were expressed in 293T cells, immunoprecipitated by anti-Flag antibody, and eluted from Protein A/G beads using Flag peptides according to manufacturers' standard procedures. Purified GST-Akt and Flag-SCF proteins were incubated for 3 h at 37° C. in the absence and presence of Skp2 inhibitor. After incubation, protein mixtures were diluted in E1A Buffer and the supernatant fluid was precleared with Protein A/G beads for 1 h, and immunoprecipitated overnight with anti-Flag antibody, after which Protein A/G beads were added for an additional 1 h. Beads were washed 4 times with E1A Buffer. Proteins were eluted in SDS-sample buffer and subjected to immunoblotting analysis. For in vivo ubiquitination assay, 293T cells were transfected with the indicated plasmids and cultured in the absence or presence of Skp2 inhibitor for 48 h. 6 h before harvest, cells were cultured in the presence of MG132. After cell harvest, cells were lysed by the denatured buffer (6M guanidine-HCl, 0.1M Na2HPO4/NaH2PO4, 10 mM imidazole). […]
# ERK activation = ERK activation after EGF, immunoblotting; assay type: cell-based
# [2] = system: tumorigenic lung cancer cells; assay: Cell survival assay, lung cancer cells and normal fibroblasts; assay type: cell-based
# Method: (§1) For Skp2 inhibitor administration, 5-10×10^3 of cells with were seeded in 12 wells in triplicate, 24 h later, treated with compound #25 (refreshed every two days). Four days later, cells were harvested, stained with trypan blue, and viable cells were counted directly under the microscope using hemocytometer. For doxorubicin treatment, 8×10^3 of PC3 cells with were seeded in 12 wells in triplicate, 24 h later, treated with various dose of compound #25 in the presence or absence of 10 nM doxorubicin or 25 ng/ml cyclophosphamide for four and three days, respectively (refreshed every two days). After treatment, cells were harvested, stained with trypan blue, and viable cells were counted directly under the microscope using hemocytometer. Cellular senescence was determined by assessing SA-b-gal activity using senescence detection kit according to manufacturers' standard procedures (Calbiochem).
# H3299 (lung) = assay: Cell survival assay, H3299; assay type: cell-based, human
# Method: as §1
# [3] = Pharmacokinetic analysis, plasma and tumor distribution; assay type: in vivo, nude mice
# Method: FIGS. 14A-C. Skp2 inhibitor restricts cancer cell proliferation and triggers apoptosis in prostate tumor xenografts. The quantification results (FIG. 14A) and representative images (FIG. 14B) of histological analysis of Ki-67, TUNEL, Skp2 and HE staining in PC3-driven tumor xenografts. “Low” indicates tumor xenografts treated with 40 mg/kg, while “high” indicates the xenografts treated with 80 mg/kg of compound #25. Scale bar indicates 100 μm. (FIG. 14C) Pharmacokinetic analysis of compound #25. Plasma and tumor distribution following IP injection of compound #25 to nude mice bearing PC3-driven tumor xenograft are analyzed. Three mice were evaluated at each time point. Results are represented as mean values±S.D.
# PC-3 cells = assay: Cell survival assay, PC-3; assay type: cell-based, human
# Method: as §1
# T1 sequence (Q13309 whole entry): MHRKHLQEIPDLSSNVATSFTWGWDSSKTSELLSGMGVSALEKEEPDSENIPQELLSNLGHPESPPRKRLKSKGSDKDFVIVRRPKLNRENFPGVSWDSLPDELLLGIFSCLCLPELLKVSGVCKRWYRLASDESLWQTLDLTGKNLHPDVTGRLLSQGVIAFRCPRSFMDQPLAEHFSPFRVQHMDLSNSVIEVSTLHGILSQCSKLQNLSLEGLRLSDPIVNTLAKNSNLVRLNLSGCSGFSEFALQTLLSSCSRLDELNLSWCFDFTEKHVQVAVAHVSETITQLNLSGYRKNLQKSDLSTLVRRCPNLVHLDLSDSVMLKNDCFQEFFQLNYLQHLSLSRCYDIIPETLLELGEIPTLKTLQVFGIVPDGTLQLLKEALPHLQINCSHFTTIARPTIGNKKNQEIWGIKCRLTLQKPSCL
# T2 sequence (Q13309 whole entry, one chain of several): as the sequence (Q13309 whole entry) above
smiles,measurement,setting,value
"CCc1cc2c(=O)c(-c3nc4ccccc4s3)coc2c(CN2CCCCC2)c1O [compound #25, 3-(1,3-benzothiazol-2-yl)-6-ethyl-7-hydroxy-8-(1-piperidinylmethyl)-4H-chromen-4-one]",lung tumor growth in vivo,A549 xenograft tumors,potent effect
same,disruption of Skp2-Skp1 interaction,[1]; 5 μM,completely disrupt Skp2-Skp1 interaction
same,interaction between WT Skp2 and Skp1,"[1]; WT Skp2, FIG. 2D",prevented the interaction between WT Skp2 and Skp1
same,Normalized w/ vehicle treatment,"[1]; amount of intact Skp1/Skp2 remaining after treatment, quantified on western blot/images",10%
same,Skp2-mediated Akt ubiquitination in vitro,Skp2 SCF complex,attenuated Skp2-mediated Akt ubiquitination
same,ERK activation,ERK activation,no noticeable impact
same,"cytotoxicity, lung cancer cells over lung fibroblast",[2],favorably triggered cytotoxicity in tumorigenic lung cancer cells over non-tumorigenic lung fibroblast
same,cell viability,H3299 (lung),potent suppressive effect on viability
same,time of maximum levels in blood,[3]; IP administration,1 h
same,share of compound maintained in blood,[3]; for 6 h,up to 70%
same,concentration at 24 h,"[3]; nude, mouse, blood, intraperitoneal, 24 h after administration, read-out: terminal concentration in blood",126 ± 48 ng/mL
same,Cmax,"[3]; nude, mouse, blood, IP administration",1430 ± 1180 ng/mL
same,concentration at 24 h,"[3]; nude, mouse, tumor, intraperitoneal, 24 h after initial administration, read-out: concentration remaining in tumor tissues",~1160 ng/mL
same,concentration at 1 h,"[3]; nude, mouse, tumor, intraperitoneal, within 1 h, read-out: concentration in tumors",4790 ± 1970 ng/g
same,cell viability,PC-3 cells; PC-3,potent effects on cell viability
same,viability upon Skp2 silencing,PC-3 cells; Skp2-knockdown prostate cancer cells,inhibitory effect is compromised
same,viability of control-knockdown cells,PC-3 cells; control-knockdown prostate cancer cells,potent inhibitory effect
same,cell viability with ectopic Skp2 Trp97Ala or Asp98Ala,PC-3 cells; ectopic expression of Skp2 mutants,attenuated the inhibitory effect
